Source: US20260355318A1, “MOLECULAR MACHINES FOR TREATMENT OF CANCER, FUNGAL INFECTIONS, OR BACTERIAL INFECTIONS” (priority 2022, published 2026)

What was measured:
[1] = system: C. albicans; experiment: Lipid peroxidation (TBARS, MDA); type: cell-based, Candida albicans; conditions: 2×MIC
Method: Superoxide dismutase (SOD) activity was determined using a Superoxide Dismutase Assay Kit (Caymanchem, MI, USA) per the distributor's instructions. Lipid peroxidation was determined using a TBARS assay kit (TCA method) (Caymanchem, MI, USA) per the distributor's instructions. SOD activity and MDA levels were normalized by protein content determined by the Pierce assay (Pierce™ BCA Protein Assay Kit, Thermo Fisher Scientific, MA, USA).

[2] = system: C. albicans; experiment: Checkerboard interaction with conventional antifungals (FICI), C. albicans; type: cell-based, Candida albicans; conditions: for FICI: 405-nm light
Method: A modified checkerboard assay was used to study the interaction of visible-light-activated MMs with conventional antifungals in C. albicans. […] The type of interaction between MMs and conventional antifungals was assessed by calculating the fractional inhibitory concentration index (FICI), with a FICI of ≤0.5, 0.5<x≤4, or >4, denoting synergistic, additive, or antagonistic interactions, respectively (Odds, 2003).
The interaction of MMs with conventional antifungal agents in C. albicans was investigated by determining the MIC of different antifungals alone and after treatment with visible-light-activated MMs using a modified broth microdilution checkerboard assay (Cantón et al., 2005) in an 8×8-well configuration. […] The fractional inhibitory concentration index (FICI) was determined as the sum of the MIC of the MM and the antifungal drug when used in combination divided by their MIC when used alone. An FICI index of ≤0.5, 0.5<x≤4, or >4 indicates synergistic, additive, and antagonistic interactions, respectively (Odds, 2003).

[3] = Photodegradation of MMs by 1H NMR; type: physicochemical; conditions: 5 min, 146 mW cm^−2 405 nm, DMSO-d6
Method: Aromatic region of ^1H NMR (600 MHz) spectra of MM 1 (300 mM in DMSO-d6) before and after irradiation for 5 min with 146 mW cm^−2 of 405 nm light.

[4] = system: E. coli; experiment: Protein carbonyl levels, E. coli; type: cell-based, Escherichia coli; conditions: 1×MIC MM 1
[5] = system: E. coli transcripts; experiment: RNAseq of MM 1-treated E. coli; type: cell-based, Escherichia coli
Method: Three independent, well-isolated colonies of E. coli were cultured to mid-log phase in MHB media. Cells were collected and resuspended in PBS (1×) to an OD600 of ≈0.05. […] Cells were then irradiated for 5 min at 146 mW cm^−2 (43.8 J cm^−2). Bacterial cells were collected onto a 0.2 μm PES filter by low vacuum filtration. Two volumes of RNAprotect (Qiagen, Valencia, CA) were added to the cells, and the samples were then centrifuged at 5000 g for 25 min at 4 ° C to pellet cells. RNA was isolated using the RNeasy Mini Kit (Qiagen, Valencia, CA) per the manufacturer's instructions. RNA sequencing (RNAseq) and data analysis were performed by DNA Link Inc. (Seoul, Republic of Korea). RNA-Seq libraries were constructed by using TruSeq Stranded Total RNA with Ribo-Zero Plus rRNA Depletion Kit and sequenced on the Illumina NovaSeq6000 platform (Illumina, San Diego, CA) in the 100 nt, paired-end configuration. From each sample, an average of 70 million reads was obtained. For gene expression analysis, reads were trimmed with cutadapt (Magoc et al., 2013) and aligned to the reference genome of Escherichia coli str. K-12 substr. MG1655 (NC_000913) using EDGE-pro pipeline with default setting. Differential expression analysis was performed with DESeq2 in Bioconductor (Love et al., 2014). Gene annotation was performed using an in-house script based on NCBI reference annotations.

[6] = system: E. coli; experiment: Extracellular ATP, E. coli; type: cell-based, Escherichia coli; conditions: 1×MIC
Method: Intracellular content leakage following treatment with MMs was determined by quantifying extracellular ATP (O'Neill et al, 2004). Following irradiation in the presence of different concentrations of MM 1, MM 5, and MM 6, or 1% DMSO, E. coli cells were centrifuged at 13,000 g for 5 min. Supernatants were recovered and stored at −20 ° C for ATP analysis. ATP analysis was conducted using the luminescence-based BacTiter-Glo™ assay (Promega) per the manufacturer's instructions. Nisin was used as a positive control. The levels of ATP in supernatants were derived via a standard curve of ATP standards from 1 nM to 1 μM. Luminescence measurements of ATP standards and culture supernatants were measured in triplicate on a microplate reader (BioTek Instruments Inc, Winooski, VT, USA). Results were expressed as relative light units (RLU) corrected for […] in the absence of cells.

[7] = system: E. coli; experiment: Antibacterial activity of pre-irradiated MM 1; type: cell-based, Escherichia coli; conditions: pre-irradiation 25 min
Method: Influence of MM pre-irradiation on the inactivation of E. coli. Top: (1) To test the influence of pre-irradiating MMs on their antibacterial effects, MM 1 was added to a Petri dish containing PBS (final concentration of 8 μM) and irradiated for 25 min at 146 mW cm^−2 with 405 nm light. Cells were then added to an OD of ≈0.02, incubated in the dark for 30 min and then irradiated for up to 10 min at 146 mW cm^−2 with 405 nm light; (2) Independently, MM 1 was added to a Petri dish containing PBS (final concentration of […]), cells were then added to an OD600 of ≈0.02, incubated in the dark for 30 min and then irradiated for up to 10 min at 146 mW cm^−2 with 405 nm light. Bottom: Time-dependent reduction in colony-forming units (expressed as the logarithm of the ratio between the cell number at every time point and the cell number at time zero) of cells treated with pre-irradiated MM 1 or non-irradiated MM 1.

C[C@@H]1Cc2ccc3ccccc3c2/C1=C1\c2ccccc2Sc2cc(NCCN)ccc21 (racemic) [MM 6, N^1-(9-(2-methyl-2,3-dihydro-1H-cyclopenta[a]naphthalen-1-ylidene)-9H-thioxanthen-3-yl)ethane-1,2-diamine]
lipid peroxidation product levels [1]: increased levels of the lipid peroxidation product malonaldehyde

C[C@@H]1Cc2ccc3ccccc3c2/C1=C1\c2ccccc2Sc2cc(NCCN(C)C)ccc21 [MM 1, N^1N^1-dimethyl-N^2-(9-(2-methyl-2,3-dihydro-1H-cyclopenta[a]naphthalen-1-ylidene)-9H-thioxanthen-3-yl) ethane-1,2-diamine]
type of interaction with conventional antifungals [2]: synergized with all antifungals tested | FICI ([2]; MM 1 + ciclopirox): 0.093 | FICI ([2]; MM 1 + fluconazole): 0.500 | FICI ([2]; MM 1 + voriconazole): 0.500 | photodegradation [3]: does not cause detectable photodegradation of MMs | protein carbonyl levels [4]: not significantly changed | transcripts significantly more abundant in MM-treated samples ([5]; 0.5×MIC): 1362 transcripts | transcripts with significantly different levels vs DMSO ([5]; 0.5×MIC, p<0.05): 2694 transcripts | transcripts significantly more abundant in DMSO controls ([5]; MM 1 0.5×MIC versus DMSO): 1332 transcripts | maximum difference in transcript abundance between treatments ([5]; MM 1 versus DMSO): ≤ 5 fold | Transcript Fold Change, argC ([5]; gene argC, p<0.05, 5 min): 2.0 | Transcript Fold Change, argF ([5]; gene argF, p<0.05, 5 min): 2.2 | Transcript Fold Change, argI ([5]; gene argI, p<0.05, 5 min): 2.8 | Transcript Fold Change, artJ ([5]; gene artJ, p<0.05, 5 min): 2.5 | Transcript Fold Change, asr ([5]; gene asr, p<0.05, 5 min): 2.2 | Transcript Fold Change, bfd ([5]; gene bfd, p<0.05, 5 min): 2.0 | Transcript Fold Change, cdh ([5]; gene cdh, p<0.05, 5 min): 2.5 | Transcript Fold Change, prpB ([5]; gene prpB, p<0.05, 5 min): 5.5 | Transcript Fold Change, prpC ([5]; gene prpC, p<0.05, 5 min): 5.0 | Transcript Fold Change, tauA ([5]; gene tauA, p<0.05, 5 min): 2.5 | Transcript Fold Change, tynA ([5]; gene tynA, p<0.05, 5 min): 2.6 | Transcript Fold Change, yiaW ([5]; gene yiaW, p<0.05, 5 min): 2.2 | Transcript Fold Change, ymdF ([5]; gene ymdF, p<0.05, 5 min): 2.4 | Transcript Fold Change, ymgC ([5]; gene ymgC, p<0.05, 5 min): 2.3 | extracellular levels of ATP [6]: up to 1.2×10^−7 moles | antibacterial activity after pre-irradiation [7]: does not lead to loss of MM antibacterial activity
